A short description of data set [1]: Circular dichroism of lipopeptide alone. The format is physicochemical. As to conditions: CD, 10 µM in PBS pH 7.2. In general terms: CD spectra are sensitive to the conformation of chiral molecules.
Data set [2] has as its system HIV-1 strain NL4-3 pseudovirus. As to conditions: for IC50: strain NL4-3 pseudovirus.
Data set [3] concerns HIV-1 strain JRFL pseudovirus. As to conditions: for IC50: strain JRFL pseudovirus.
In data set [4] the test system is HIV-1 strain SG3.1 living virus. As to conditions: for IC50: strain SG3.1 living virus.
Data set [5] deals with representative pandemic HIV-1 strain pseudoviruses. As to conditions: for IC50: representative pandemic strain pseudoviruses, 48 h; for inhibitory activity against 12 pseudoviruses higher than that of the T20: versus T20.
Data set [6] relates to T20-resistant mutant strains (HIV-1 strain NL4-3). As to conditions: for IC50: T20-resistant mutant strains ( strain NL4-3, 48 h); for inhibitory activity against 12 drug-resistant mutant strains higher than that of the LP-98: versus LP-98.
For data set [7], the system named is HIV-1 envelope protein (Env). As to the kind of experiment: Env-mediated cell-cell fusion inhibition (DSP reporter system). As to conditions: for IC50: read-out: average IC50 value, membrane fusion of 12 viruses, average over Env of 12 representative pandemic HIV-1 strains; for inhibitory activity against membrane fusions of 12 viruses higher than that of the T20: versus T20.

The target in a further data set is N44 (Human immunodeficiency virus type 1 group M subtype B, UniProt P04578). As to the kind of experiment: Circular dichroism of lipopeptide complex with target sequence N44. As to conditions: CD; for Tm value of the mixture with N44: [θ]222, 20-98 °C at 2 °C/min; for α-helix content of the mixture with N44: lipopeptide and N44 each 10 µM in PBS pH 7.2.
Chain of N44 (P04578 538-581): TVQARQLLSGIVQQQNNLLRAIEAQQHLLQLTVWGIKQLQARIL
Data set [8] has as its system replicative HIV-1 strain JR-CSF. As to conditions: replicative strain JR-CSF, 48 h.
The mark [9] stands for this setting: LP-124 versus LP-122, LP-125 versus LP-123.

Residues, ends and D or L forms follow the SMILES beside them. *: point of attachment. Succinyl(4-O-cholesteryl) = CC(C)CCC[C@@H](C)[C@H]1CC[C@H]2[C@@H]3CC=C4C[C@@H](OC(=O)CCC(=O)*)CC[C@]4(C)[C@H]3CC[C@]12C

By IC50 is commonly meant the concentration that inhibits the measured activity by half.

On to `CC[C@H](C)[C@H](NC(=O)[C@H](CCCCN)NC(=O)[C@H](CCCCN)NC(=O)[C@H](CCC(=O)O)NC(=O)[C@H](Cc1c[nH]c2ccccc12)NC(=O)[C@H](CCC(=O)O)NC(=O)[C@H](CCC(=O)O)NC(=O)[C@H](Cc1c[nH]c2ccccc12)NC(=O)[C@@H](NC(C)=O)[C@@H](C)O)C(=O)N[C@@H](CCC(=O)O)C(=O)N[C@@H](CCC(=O)O)C(=O)N[C@@H](CC(C)C)C(=O)N[C@@H](CCC(=O)O)C(=O)N[C@@H](CCCCN)C(=O)N[C@@H](CCCCN)C(=O)N[C@H](C(=O)N[C@@H](CCC(=O)O)C(=O)N[C@@H](CCC(=O)O)C(=O)N[C@@H](CC(C)C)C(=O)N[C@@H](CC(C)C)C(=O)N[C@@H](CCCCN)C(=O)N[C@@H](CCCCN)C(=O)N[C@@H](C)C(=O)N[C@@H](CCC(=O)O)C(=O)N[C@@H](CCC(=O)O)C(=O)N[C@@H](CCC(N)=O)C(=O)N[C@@H](CCC(N)=O)C(=O)N[C@@H](CCCCN)C(=O)N[C@@H](CCCCN)C(=O)N[C@@H](CC(N)=O)C(=O)N[C@@H](CCC(=O)O)C(=O)N[C@@H](C)C(=O)N[C@@H](C)C(=O)N[C@@H](C)C(=O)N[C@@H](CCCCN)C(=O)N[C@@H](CCCCNC(=O)CCC(=O)O[C@H]1CC[C@@]2(C)C(=CC[C@H]3[C@@H]4CC[C@H]([C@H](C)CCCC(C)C)[C@@]4(C)CC[C@@H]32)C1)C(N)=O)[C@@H](C)CC` [LP-123] (Ac-TWEEWEKKIEELEKKIEELLKKAEEQQKKNEAAAKK(Succinyl(4-O-cholesteryl))-NH2), for which, in [1], the “α-helix content, lipopeptide alone” value came out at 56%. The IC50 in data set [2] came out at 18.1 pM; in data set [3], 14.6 pM; in data set [4], 3.68 pM; in [5], 27.4 pM; in data set [6], 55.5 pM; in data set [7], 24 pM. In data set [5], the “inhibitory activity against 12 pseudoviruses higher than that of the T20” value came out at 732 folds. The “inhibitory activity against 12 drug-resistant mutant strains higher than that of the LP-98” value in data set [6] is listed as 48 folds. Also, the “inhibitory activity against membrane fusions of 12 viruses higher than that of the T20” value in data set [7] was 466 folds. Moreover, on N44, the “Tm value of the mixture with N44” value is greater than 98 °C. Further, the “α-helix content of the mixture with N44” value on N44 turned out to be 79%.
Take `CC[C@H](C)[C@H](NC(=O)[C@H](CCCCN)NC(=O)[C@H](CCCCN)NC(=O)[C@H](CCC(=O)O)NC(=O)[C@H](Cc1ccc(O)cc1)NC(=O)[C@H](CCC(=O)O)NC(=O)[C@H](CCC(=O)O)NC(=O)[C@H](Cc1ccc(O)cc1)NC(=O)[C@@H](NC(C)=O)[C@@H](C)O)C(=O)N[C@@H](CCC(=O)O)C(=O)N[C@@H](CCC(=O)O)C(=O)N[C@@H](CC(C)C)C(=O)N[C@@H](CCC(=O)O)C(=O)N[C@@H](CCCCN)C(=O)N[C@@H](CCCCN)C(=O)N[C@H](C(=O)N[C@@H](CCC(=O)O)C(=O)N[C@@H](CCC(=O)O)C(=O)N[C@@H](CC(C)C)C(=O)N[C@@H](CC(C)C)C(=O)N[C@@H](CCCCN)C(=O)N[C@@H](CCCCN)C(=O)N[C@@H](C)C(=O)N[C@@H](CCC(=O)O)C(=O)N[C@@H](CCC(=O)O)C(=O)N[C@@H](CCC(N)=O)C(=O)N[C@@H](CCC(N)=O)C(=O)N[C@@H](CCCCN)C(=O)N[C@@H](CCCCN)C(=O)N[C@@H](CC(N)=O)C(=O)N[C@@H](CCC(=O)O)C(=O)N[C@@H](C)C(=O)N[C@@H](C)C(=O)N[C@@H](C)C(=O)N[C@@H](CCCCN)C(=O)N[C@@H](CCCCNC(=O)CCC(=O)O[C@H]1CC[C@@]2(C)C(=CC[C@H]3[C@@H]4CC[C@H]([C@H](C)CCCC(C)C)[C@@]4(C)CC[C@@H]32)C1)C(N)=O)[C@@H](C)CC` [LP-125] (Ac-TYEEYEKKIEELEKKIEELLKKAEEQQKKNEAAAKK(Succinyl(4-O-cholesteryl))-NH2): in [1], the “α-helix content, lipopeptide alone” value came to 78%. Moreover, the “activity increased as compared to its template, NL4-3 pseudovirus” value in [2] (setting [9]) is recorded as “about 5 folds”. Besides, the IC50 in data set [2] amounted to 3.43 pM; in data set [3], 5.78 pM; in data set [4] it was 1.11 pM; in data set [5] it was 4.22 pM; in data set [6] it was 6.29 pM; in [7], 11.9 pM. Further, the “activity increased as compared to its template, JRFL pseudovirus” value in data set [3] (setting [9]) is on record as roughly 3 folds. Besides, the “activity increased as compared to its template, SG3.1 living virus” value in data set [4] (setting [9]) is roughly 3 folds. For the same molecule, the “inhibitory activity against 12 pseudoviruses higher than that of the T20” value in data set [5] came to 4752 folds. The “inhibitory activity against 12 drug-resistant mutant strains higher than that of the LP-98” value in data set [6] came to 423 folds. Also, the “inhibitory activity against membrane fusions of 12 viruses higher than that of the T20” value in data set [7] is given as 942 folds. The “Tm value of the mixture with N44” value on N44 is 91 °C. The “α-helix content of the mixture with N44” value at N44 was 89%.
As to `CC[C@H](C)[C@H](NC(=O)[C@H](CCCCN)NC(=O)[C@H](CCCCN)NC(=O)[C@H](CCC(=O)O)NC(=O)[C@H](Cc1ccc(O)cc1)NC(=O)[C@H](CCC(=O)O)NC(=O)[C@H](CCC(=O)O)NC(=O)[C@H](Cc1ccc(O)cc1)NC(=O)[C@H](CCC(=O)O)NC(C)=O)C(=O)N[C@@H](CCC(=O)O)C(=O)N[C@@H](CCC(=O)O)C(=O)N[C@@H](CC(C)C)C(=O)N[C@@H](CCC(=O)O)C(=O)N[C@@H](CCCCN)C(=O)N[C@@H](CCCCN)C(=O)N[C@H](C(=O)N[C@@H](CCC(=O)O)C(=O)N[C@@H](CCC(=O)O)C(=O)N[C@@H](CC(C)C)C(=O)N[C@@H](CC(C)C)C(=O)N[C@@H](CCCCN)C(=O)N[C@@H](CCCCN)C(=O)N[C@@H](C)C(=O)N[C@@H](CCC(=O)O)C(=O)N[C@@H](CCC(=O)O)C(=O)N[C@@H](CCC(N)=O)C(=O)N[C@@H](CCC(N)=O)C(=O)N[C@@H](CCCCN)C(=O)N[C@@H](CCCCN)C(=O)N[C@@H](CC(N)=O)C(=O)N[C@@H](CCC(=O)O)C(=O)N[C@@H](C)C(=O)N[C@@H](C)C(=O)N[C@@H](C)C(=O)N[C@@H](CCCCN)C(=O)N[C@@H](CCCCNC(=O)CCC(=O)O[C@H]1CC[C@@]2(C)C(=CC[C@H]3[C@@H]4CC[C@H]([C@H](C)CCCC(C)C)[C@@]4(C)CC[C@@H]32)C1)C(N)=O)[C@@H](C)CC` [LP-126] (Ac-EYEEYEKKIEELEKKIEELLKKAEEQQKKNEAAAKK(Succinyl(4-O-cholesteryl))-NH2), in data set [1], the “α-helix content, lipopeptide alone” value was determined as 51%. Besides, the results for the IC50 in [2], in data set [3] and in [4] were 3.85 pM, 6.08 pM and 1.65 pM, respectively. For the same molecule, the “Tm value of the mixture with N44” value at N44 turned out to be 92 °C. Besides, the “α-helix content of the mixture with N44” value on N44 is reported as 66%.
Regarding Enfuvirtide, the IC50 in data set [4] came to 2910 pM; in data set [8] it was 5600 pM; in [5] it was 20100 pM; in data set [7] it was 11200 pM.

For the origin of these results see EP4685153A1 (priority 2023, dated 2024).
